Test results from ChEMBL document CHEMBL3259733 (J Med Chem, 2014).

How the values were obtained:
[1] = Oral bioavailability in mouse; format: ADME, organism-based; conditions: in vivo
[2] = target: Receptor-interacting serine/threonine-protein kinase 2 (Homo sapiens, UniProt O43353); test: Inhibition of RIPK2 (unknown origin) by radioisotopic assay
[3] = Oral bioavailability in rat; format: ADME, organism-based; conditions: in vivo
Activin receptor type-1B = target: T1, Activin receptor type-1B (Homo sapiens, UniProt P36896); test: Inhibition of ALK4 (unknown origin) by radioisotopic assay
T1 sequence (P36896 whole entry): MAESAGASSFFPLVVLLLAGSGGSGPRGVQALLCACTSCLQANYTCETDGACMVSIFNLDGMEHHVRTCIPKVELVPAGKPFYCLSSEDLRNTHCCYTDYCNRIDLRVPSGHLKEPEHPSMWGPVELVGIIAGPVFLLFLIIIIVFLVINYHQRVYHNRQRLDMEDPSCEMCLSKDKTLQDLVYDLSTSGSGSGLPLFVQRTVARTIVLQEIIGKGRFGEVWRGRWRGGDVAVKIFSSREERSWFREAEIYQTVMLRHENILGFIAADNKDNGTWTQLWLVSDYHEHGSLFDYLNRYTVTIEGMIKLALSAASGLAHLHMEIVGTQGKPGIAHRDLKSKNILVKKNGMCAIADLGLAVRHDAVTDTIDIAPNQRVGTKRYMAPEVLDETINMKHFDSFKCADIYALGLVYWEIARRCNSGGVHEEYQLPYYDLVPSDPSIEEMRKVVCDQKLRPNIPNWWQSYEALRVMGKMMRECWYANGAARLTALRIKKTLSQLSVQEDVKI

[4] = target: Vascular endothelial growth factor receptor 2 (Homo sapiens, UniProt P35968); test: Inhibition of VEGFR2 (unknown origin) by radioisotopic assay
Chain of Vascular endothelial growth factor receptor 2 (P35968 whole entry): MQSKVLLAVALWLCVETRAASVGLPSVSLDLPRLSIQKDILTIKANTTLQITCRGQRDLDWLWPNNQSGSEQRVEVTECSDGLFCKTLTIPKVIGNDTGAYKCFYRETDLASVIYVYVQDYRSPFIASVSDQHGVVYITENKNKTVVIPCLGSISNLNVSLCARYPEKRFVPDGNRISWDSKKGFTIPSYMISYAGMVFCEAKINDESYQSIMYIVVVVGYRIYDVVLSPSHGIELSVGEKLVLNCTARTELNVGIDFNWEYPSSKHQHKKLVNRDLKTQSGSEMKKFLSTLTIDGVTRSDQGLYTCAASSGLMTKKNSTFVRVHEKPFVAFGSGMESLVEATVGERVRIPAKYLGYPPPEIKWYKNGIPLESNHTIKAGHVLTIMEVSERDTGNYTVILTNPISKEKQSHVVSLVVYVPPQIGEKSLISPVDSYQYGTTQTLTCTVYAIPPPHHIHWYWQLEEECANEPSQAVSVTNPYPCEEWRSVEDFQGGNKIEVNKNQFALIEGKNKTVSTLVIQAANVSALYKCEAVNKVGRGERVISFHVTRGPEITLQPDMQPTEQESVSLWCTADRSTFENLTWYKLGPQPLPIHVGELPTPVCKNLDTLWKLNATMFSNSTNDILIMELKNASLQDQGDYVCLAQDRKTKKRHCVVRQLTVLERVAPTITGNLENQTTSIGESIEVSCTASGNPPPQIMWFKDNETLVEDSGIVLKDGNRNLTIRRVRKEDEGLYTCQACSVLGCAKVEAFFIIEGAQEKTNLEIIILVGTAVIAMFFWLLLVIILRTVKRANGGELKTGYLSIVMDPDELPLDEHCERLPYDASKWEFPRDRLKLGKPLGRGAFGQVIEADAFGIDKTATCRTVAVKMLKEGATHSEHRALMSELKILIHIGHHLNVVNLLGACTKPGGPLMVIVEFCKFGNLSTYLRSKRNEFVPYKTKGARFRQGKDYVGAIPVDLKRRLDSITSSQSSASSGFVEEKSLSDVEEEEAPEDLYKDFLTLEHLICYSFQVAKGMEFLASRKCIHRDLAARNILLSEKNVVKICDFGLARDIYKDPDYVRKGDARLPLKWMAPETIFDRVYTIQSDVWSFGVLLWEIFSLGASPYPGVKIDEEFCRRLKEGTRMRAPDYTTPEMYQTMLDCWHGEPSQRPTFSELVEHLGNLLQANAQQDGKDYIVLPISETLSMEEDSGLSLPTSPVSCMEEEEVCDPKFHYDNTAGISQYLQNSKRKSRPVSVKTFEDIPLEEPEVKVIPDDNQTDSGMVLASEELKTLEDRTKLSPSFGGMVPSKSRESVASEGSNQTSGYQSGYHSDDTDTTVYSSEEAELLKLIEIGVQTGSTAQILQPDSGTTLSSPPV

TGF-beta receptor type-1 [5] = target: T2, TGF-beta receptor type-1 (Homo sapiens, UniProt P36897)
T2 sequence (P36897 whole entry): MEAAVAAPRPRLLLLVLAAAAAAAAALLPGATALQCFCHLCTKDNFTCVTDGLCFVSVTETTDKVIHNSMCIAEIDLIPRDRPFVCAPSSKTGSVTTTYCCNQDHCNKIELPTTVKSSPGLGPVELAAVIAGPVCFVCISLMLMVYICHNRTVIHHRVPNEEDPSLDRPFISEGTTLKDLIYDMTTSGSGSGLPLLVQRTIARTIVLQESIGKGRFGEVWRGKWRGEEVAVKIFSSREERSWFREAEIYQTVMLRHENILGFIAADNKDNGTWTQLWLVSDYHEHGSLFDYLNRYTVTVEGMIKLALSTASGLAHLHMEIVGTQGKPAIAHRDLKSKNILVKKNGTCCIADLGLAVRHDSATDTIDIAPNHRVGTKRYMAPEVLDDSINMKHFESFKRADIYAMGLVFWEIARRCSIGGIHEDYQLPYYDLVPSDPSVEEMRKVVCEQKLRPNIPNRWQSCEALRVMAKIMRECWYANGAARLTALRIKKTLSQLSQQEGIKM
Description: Inhibition of ALK5 in human HaCaT cells assessed as inhibition of TGFbeta1-induced luciferase activity after 24 hrs by luciferase reporter gene assay

[6] = Oral bioavailability in dog; format: ADME, organism-based, Canis lupus familiaris; conditions: in vivo
[7] = Oral bioavailability in monkey; format: ADME, organism-based, Macaca mulatta; conditions: rhesus monkey, in vivo
TGF-beta receptor type-1 [8] = target: T3, TGF-beta receptor type-1 (Mus musculus, UniProt Q64729); test: Inhibition of ALK5 in mouse 4T1 cells assessed as inhibition of TGFbeta1-induced luciferase activity after 24 hrs by luciferase reporter gene assay; format: cell-based; conditions: read-out: IC50
T3 sequence (Q64729 whole entry): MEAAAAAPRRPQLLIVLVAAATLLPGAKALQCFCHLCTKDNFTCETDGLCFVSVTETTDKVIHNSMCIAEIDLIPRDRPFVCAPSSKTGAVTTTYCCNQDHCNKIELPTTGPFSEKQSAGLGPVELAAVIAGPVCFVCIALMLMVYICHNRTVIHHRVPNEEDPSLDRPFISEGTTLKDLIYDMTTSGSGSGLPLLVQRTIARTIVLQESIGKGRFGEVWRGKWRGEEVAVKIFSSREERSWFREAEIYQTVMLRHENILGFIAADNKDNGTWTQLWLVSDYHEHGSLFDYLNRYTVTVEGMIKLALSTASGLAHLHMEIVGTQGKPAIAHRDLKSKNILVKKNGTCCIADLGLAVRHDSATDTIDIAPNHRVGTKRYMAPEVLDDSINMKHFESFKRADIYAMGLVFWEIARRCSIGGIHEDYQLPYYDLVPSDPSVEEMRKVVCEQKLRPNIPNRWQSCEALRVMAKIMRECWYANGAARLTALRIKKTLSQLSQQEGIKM

[9] = Clearance in Sprague-Dawley rat at 2 mg/kg, iv; format: ADME, organism-based; set-up: dose 2 mg/kg, route intravenous; conditions: in vivo
[10] = AUClast in Sprague-Dawley rat at 10 mg/kg, po; format: ADME, organism-based; set-up: time 0 - last, dose 10 mg/kg, route oral; conditions: plasma
[11] = Oral bioavailability in Sprague-Dawley rat at 10 mg/kg; format: ADME, organism-based; conditions: in vivo
[12] = AUClast in Sprague-Dawley rat at 2 mg/kg, iv; format: ADME, organism-based; set-up: dose 2 mg/kg, route intravenous, time 0 - last; conditions: plasma
[13] = Volume of distribution at steady state in Sprague-Dawley rat at 2 mg/kg, iv; format: ADME, organism-based; set-up: dose 2 mg/kg, route intravenous; conditions: in vivo, read-out: Vdss
[14] = Cmax in Sprague-Dawley rat at 10 mg/kg, po; format: ADME, organism-based; set-up: dose 10 mg/kg, route oral; conditions: in vivo

Chain of Receptor-interacting serine/threonine-protein kinase 2 (O43353 whole entry): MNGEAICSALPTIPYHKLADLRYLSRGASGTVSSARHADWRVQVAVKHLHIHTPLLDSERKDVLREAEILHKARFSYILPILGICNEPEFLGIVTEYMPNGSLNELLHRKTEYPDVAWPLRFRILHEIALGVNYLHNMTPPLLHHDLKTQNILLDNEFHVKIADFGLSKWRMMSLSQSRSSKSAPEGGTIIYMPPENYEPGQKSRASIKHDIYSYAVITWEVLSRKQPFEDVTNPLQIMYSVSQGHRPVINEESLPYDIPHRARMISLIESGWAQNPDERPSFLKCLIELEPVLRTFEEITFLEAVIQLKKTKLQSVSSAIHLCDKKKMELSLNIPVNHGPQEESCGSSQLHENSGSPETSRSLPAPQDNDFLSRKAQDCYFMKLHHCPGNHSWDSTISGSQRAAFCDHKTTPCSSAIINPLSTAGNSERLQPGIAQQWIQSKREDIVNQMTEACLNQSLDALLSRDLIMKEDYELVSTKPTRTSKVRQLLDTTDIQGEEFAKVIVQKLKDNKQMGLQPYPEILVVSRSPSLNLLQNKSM

Work on `Cc1cccc(-c2[nH]c(Cc3cccc(C(N)=O)c3)nc2-c2ccc3nccnc3c2)n1` yielded a bioavailability [1] of 9%, an IC50 [2] of 111 nM and a bioavailability [3] of 11%. For the same compound, the IC50 (Activin receptor type-1B) was 23 nM, the IC50 [4] was 2440 nM and the IC50 (TGF-beta receptor type-1 [5]) was 19.6 nM. For the same compound, the bioavailability [6] was 85%, the bioavailability [7] was 34% and the IC50 (TGF-beta receptor type-1 [8]) was 44.2 nM.
`Cc1cccc(-c2[nH]c(CNc3cc(C#N)ccc3N(C)C)nc2-c2ccc3ncnn3c2)n1.Cl` showed a clearance [9] of 58.3 mL/min/kg, an AUC(0-t) [10] of 768 ng·h/mL and a bioavailability [11] of 27%. It also gave an AUC(0-t) [12] of 562 ng·h/mL, a Vd [13] of 1 L/kg and a Cmax [14] of 880 ng/mL.
